In patent US12291516B2, “Substituted 1-amino-1H-imidazole-5-carboxamide as Bruton's tyrosine kinase inhibitors” (Henan Zhiwei Biomedicine Co., Ltd., priority 2019, dated 2025):

What follows are compounds tested against BTK (Homo sapiens (Human), UniProt Q06187) (assay: BTK inhibition assay by Reaction Biology Corporation (33P-ATP, filter-binding)). Conditions: footnote a: from Reaction Biology Corporation.
Format: biochemical
Description: BTK inhibition Assay and selectivity Assay The assay was conducted either a by a third party (Reaction Biology Corporation, PA, USA) or in house.
a) Reagent and Procedure by Reaction Biology Corporation:
Base Reaction buffer; 20 mM Hepes (pH 7.5), 10 mM MgCl2, 1 mM EGTA, 0.02%. Brij35, 0.02 mg/ml BSA, 0.1 mM Na3VO4, 2 mM DTT, 1% DMSO. Required cofactors were added individually to each kinase reaction. Compound handling: testing compounds were dissolved in 100% DMSO to specific concentration. The serial dilution was conducted by Integra Viaflo Assist in DMSO.
The substrate was prepared in freshly prepared reaction buffer of above and required cofactors were added to the substrate solution. The kinase was delivered to the substrate solution and the mixture was gently mixed. Testing compounds in 100% DMSO was added to the kinase reaction mixture by Acoustic technology (Echo550; nanoliter range) and the new mixture was incubated for 20 min at room temperature. Then ^33P-ATP (Specific activity 10 μCi/μl) was added to the reaction mixture to initiate the reaction and the mixture was incubated for 2 hours at room temperature. The radioactivity was detected by filter-binding method and the kinase activity data was expressed as the percent of remaining kinase activity in test sample compared to vehicle (dimethyl sulfoxide) reaction. IC50 values and curve fits were obtained using Prism (GraphPad Software). The result is outlined in Table-I

Chain of BTK (Q06187 whole entry): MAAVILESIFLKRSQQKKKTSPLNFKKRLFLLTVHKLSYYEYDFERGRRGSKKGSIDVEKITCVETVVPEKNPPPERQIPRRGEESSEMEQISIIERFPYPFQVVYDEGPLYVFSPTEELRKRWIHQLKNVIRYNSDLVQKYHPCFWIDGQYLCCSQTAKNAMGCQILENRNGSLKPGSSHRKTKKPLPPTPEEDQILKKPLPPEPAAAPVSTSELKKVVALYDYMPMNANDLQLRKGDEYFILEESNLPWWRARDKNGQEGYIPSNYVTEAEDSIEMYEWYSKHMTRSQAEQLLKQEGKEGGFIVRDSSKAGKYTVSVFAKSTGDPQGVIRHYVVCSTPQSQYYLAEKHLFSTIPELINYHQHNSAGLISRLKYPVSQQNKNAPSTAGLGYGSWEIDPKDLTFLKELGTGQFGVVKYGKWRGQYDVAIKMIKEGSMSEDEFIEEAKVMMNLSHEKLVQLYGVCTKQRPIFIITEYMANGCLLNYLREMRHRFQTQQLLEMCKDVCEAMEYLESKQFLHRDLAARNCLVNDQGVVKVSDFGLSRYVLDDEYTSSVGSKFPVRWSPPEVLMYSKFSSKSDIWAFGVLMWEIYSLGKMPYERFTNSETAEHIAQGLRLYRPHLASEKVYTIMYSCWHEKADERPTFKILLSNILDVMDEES

Row | SMILES | IC50
1 | C=CC(=O)N1CCCC[C@H]1c1nc(-c2ccc(C(=O)Nc3cc(CC)ccn3)cc2)c(C(N)=O)n1N [Example 73, (S)-2-(1-acryloylpiperidin-2-yl)-1-amino-4-(4-((4-ethylpyridin-2-yl)carbamoyl)phenyl)-1H-imidazole-5-carboxamide] | 9.68 nM
2 | C=CC(=O)N1CCCC[C@H]1c1nc(-c2ccc(C(=O)Nc3cc(CC)ccn3)cc2)c(C(N)=O)n1NC [Example 81, (S)-2-(1-acryloylpiperidin-2-yl)-4-(4-((4-ethylpyridin-2-yl)carbamoyl)phenyl)-1-(methylamino)-1H-imidazole-5-carboxamide] | 11 nM
3 | C=CC(=O)N1CCCC[C@H]1c1nc(-c2ccc(C(=O)Nc3ccc(Cl)cn3)cc2)c(C(N)=O)n1N [Example 86, (S)-2-(1-acryloylpiperidin-2-yl)-1-amino-4-(4-((5-chloropyridin-2-yl)carbamoyl)phenyl)-1H-imidazole-5-carboxamide] | 29.2 nM
4 | C=CC(=O)N1CCCC[C@H]1c1nc(-c2ccc(C(=O)Nc3cc(Br)ccn3)cc2)c(C(N)=O)n1N [Example 87, (S)-2-(1-acryloylpiperidin-2-yl)-1-amino-4-(4-((4-bromopyridin-2-yl)carbamoyl)phenyl)-1H-imidazole-5-carboxamide] | 4.38 nM
5 | CC#CC(=O)N1CCCC[C@H]1c1nc(-c2ccc(C(=O)Nc3cc(Br)ccn3)cc2)c(C(N)=O)n1N [Example 88, (S)-1-amino-4-(4-((4-bromopyridin-2-yl)carbamoyl)phenyl)-2-(1-(but-2-ynoyl)piperidin-2-yl)-1H-imidazole-5-carboxamide] | 22.6 nM

Other lines, results leading:

Row | IC50 | SMILES
6 | 6.12 nM | C=CC(=O)N1CCCC[C@H]1c1nc(-c2ccc(C(=O)Nc3cc(I)ccn3)cc2)c(C(N)=O)n1N [Example 89, (S)-2-(1-acryloylpiperidin-2-yl)-1-amino-4-(4-((4-iodopyridin-2-yl)carbamoyl)phenyl)-1H-imidazole-5-carboxamide]
7 | 4.97 nM | C=CC(=O)N1CCCC[C@H]1c1nc(-c2ccc(C(=O)Nc3cc(-c4ccc(F)cc4)ccn3)cc2)c(C(N)=O)n1N [Example 91, (S)-2-(1-acryloylpiperidin-2-yl)-1-amino-4-(4-((4-(4-fluorophenyl)pyridin-2-yl)carbamoyl)phenyl)-1H-imidazole-5-carboxamide]
8 | 14.6 nM | C=CC(=O)N1CCC[C@@H](c2nc(-c3ccc(C(=O)Nc4cc(CC)ccn4)cc3)c(C(N)=O)n2N)C1 [Example 93, (R)-2-(1-acryloylpiperidin-3-yl)-1-amino-4-(4-((4-ethylpyridin-2-yl)carbamoyl)phenyl)-1H-imidazole-5-carboxamide]
9 | 18.7 nM | C=CC(=O)N1CCCC[C@H]1c1nc(-c2ccc(C(=O)Nc3nccs3)cc2)c(C(N)=O)n1N [Example 105, (S)-2-(1-acryloylpiperidin-2-yl)-1-amino-4-(4-(thiazol-2-ylcarbamoyl)phenyl)-1H-imidazole-5-carboxamide]
